ChEMBL document CHEMBL1130762, “Structure-activity relationships of a series of 1-substituted-4-methylbenzimidazole neuropeptide Y-1 receptor antagonists” (Bioorg Med Chem Lett, 1998)
Several values for one entry are separate records, joined by “and”; a condition that tells them apart may be missing. Equal entries are not always repeated.

Key:
[1] = molecular target: T1, Neuropeptide Y receptor type 1 (Homo sapiens, UniProt P25929); experiment: Binding affinity at cloned Neuropeptide Y-1 receptor expressed in AV-12 cells is evaluated.; type: cell-based, AV12
T1 sequence (P25929 whole entry): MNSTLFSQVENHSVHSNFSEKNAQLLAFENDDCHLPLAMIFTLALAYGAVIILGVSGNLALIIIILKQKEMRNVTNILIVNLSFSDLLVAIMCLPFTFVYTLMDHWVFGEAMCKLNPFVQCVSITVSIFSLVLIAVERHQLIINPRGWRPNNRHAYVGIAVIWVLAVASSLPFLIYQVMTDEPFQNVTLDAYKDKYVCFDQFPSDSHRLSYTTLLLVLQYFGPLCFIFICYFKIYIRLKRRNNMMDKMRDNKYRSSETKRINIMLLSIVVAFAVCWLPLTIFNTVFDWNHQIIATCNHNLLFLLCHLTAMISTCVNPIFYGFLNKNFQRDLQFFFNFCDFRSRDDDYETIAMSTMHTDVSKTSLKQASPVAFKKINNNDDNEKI

SK-N-MC [2] = experiment: Inhibition of NPY induced intracellular Ca++ mobilization in SK-N-MC cells is evaluated.; type: functional, cell-based, Homo sapiens
SK-N-MC [3] = experiment: Tested to reverse NPY induced inhibition of forskolin-stimulated cAMP in SK-N-MC cells is evaluated.; type: functional, cell-based, Homo sapiens
[4] = molecular target: T1, Neuropeptide Y receptor type 1; experiment: Binding affinity at cloned Neuropeptide Y receptor type 1 expressed in AV-12 cells is evaluated.; type: cell-based, AV12

SMILES | Ki [1] | other results
Cc1cccc2c1nc(COc1ccc(Cl)cc1)n2CCCC1CCN(CCCCN2CCCCC2)CC1 | 0.052 µM and 0.0057 µM | 
Cc1cccc2c1nc(COc1ccc(Cl)cc1)n2CCCC1CCN(CC(=O)N2CCCCC2)CC1 | 0.136 µM | 
Cc1cccc2c1nc(COc1ccc(Cl)cc1)n2CCCC1CCN(CCCN2CCCCC2)CC1 | 0.0045 µM | Ki (SK-N-MC [2]): 0.026 µM; Ki (SK-N-MC [3]): 0.046 µM
Cc1cccc2c1nc(COc1ccc(Cl)cc1)n2CCCC1CCN(Cc2ccccc2)CC1 | 0.109 µM | 
CCOC(=O)CCCN1CCC(CCCn2c(COc3ccc(Cl)cc3)nc3c(C)cccc32)CC1 | 0.029 µM | 
Cc1cccc2c1nc(COc1ccc(Cl)cc1)n2CCCC1CCN(CCCc2ccccc2)CC1 | 0.057 µM | 
Cc1cccc2c1nc(COc1ccc(Cl)cc1)n2CCCC1CCN(CCCC(=O)O)CC1 | 1.63 µM | 
Cc1cccc2c1nc(COc1ccc(Cl)cc1)n2CCCC1CCN(CCCC(N)=O)CC1 | 0.088 µM | 
Clc1ccc(OCc2nc3c(OCCCN4CCCCC4)cccc3n2CCCC2CCCNC2)cc1 (stereo unspecified) |  | Ki [4]: 0.002 µM
Cc1cccc2c1nc(COc1ccc(Cl)cc1)n2CCCC1CCNCC1 | 0.335 µM | 
Cc1cccc2c1nc(COc1ccc(Cl)cc1)n2CCCC1CCN(CCc2ccccc2)CC1 | 0.029 µM | 

More lines, in order of falling Ki [1], values ahead:

Ki [1] | SMILES | other results
2.19 µM | Cc1cccc2c1nc(COc1ccc(Cl)cc1)n2CCCC1CCN(CC(=O)O)CC1 | 
0.427 µM | CCOC(=O)CN1CCC(CCCn2c(COc3ccc(Cl)cc3)nc3c(C)cccc32)CC1 | 
0.26 µM | Cc1cccc2c1nc(COc1ccc(Cl)cc1)n2CCCC1CCN(C(=O)CCN2CCCCC2)CC1 | 
0.052 µM | Cc1cccc2c1nc(COc1ccc(Cl)cc1)n2CCCC1CCN(C)CC1 | 
0.037 µM | Cc1cccc2c1nc(COc1ccc(Cl)cc1)n2CCCC1CCN(CCN2CCCCC2)CC1 | 
0.029 µM | CCCN1CCC(CCCn2c(COc3ccc(Cl)cc3)nc3c(C)cccc32)CC1 | 
0.021 µM | Cc1cccc2c1nc(COc1ccc(Cl)cc1)n2CCCC1CCN(CCCC(=O)N2CCCCC2)CC1 | 
0.011 µM | Cc1cccc2c1nc(COc1ccc(Cl)cc1)n2CCCC1CCN(CCC(C)C)CC1 | 
